Data reported in paper PMC12302426, “Dihydrokoumine, a dual-target analgesic with reduced side effects isolated from a traditional Chinese medicine” (Journal of Advanced Research, 2024).
Where two headings read alike, the source gives them in different places.

Assays:
Kappa opioid receptor = target: T1, Kappa opioid receptor (Homo sapiens, UniProt P41145); assay: DMR agonist and desensitization assay in HEK293-Kappa cells; type: cell-based
T1 construct: expressed in transfected cells; host or cells: HEK293-Kappa
T1 sequence (P41145 whole entry): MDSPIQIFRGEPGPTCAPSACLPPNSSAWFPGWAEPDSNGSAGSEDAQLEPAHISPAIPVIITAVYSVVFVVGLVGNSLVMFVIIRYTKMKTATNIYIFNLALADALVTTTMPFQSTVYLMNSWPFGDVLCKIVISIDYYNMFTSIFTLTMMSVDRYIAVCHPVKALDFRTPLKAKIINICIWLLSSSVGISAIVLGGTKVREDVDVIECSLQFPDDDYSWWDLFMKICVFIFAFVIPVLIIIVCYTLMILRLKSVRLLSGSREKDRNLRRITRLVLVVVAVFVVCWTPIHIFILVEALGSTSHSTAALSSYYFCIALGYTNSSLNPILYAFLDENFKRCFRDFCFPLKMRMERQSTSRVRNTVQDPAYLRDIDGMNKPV
Experimental: (§1) DMR assays were performed using an Epic® BT system (Corning, NY, USA). All used cell lines were directly seeded in Epic 384-well biosensor microplates with a seeding density of 25,000 cells per well. After being cultured for about 22 h, the cells formed a monolayer with a confluency of about 95 % in the cell culture medium. Then the cells were manually washed using assay buffer (1 × HBSS buffer, 10 mM HEPES, pH = 7.4) and maintained in 30 μL of the assay buffer for 1 h. All samples were dissolved in DMSO and diluted freshly with the assay buffer containing 0.1 % BSA.
The DMR assays were conducted as follows. […] In the case of the DMR desensitization assay, cells were pretreated with analytes for one hour before introducing a specific agonist at the indicated concentration, and the agonist-induced DMR signals were monitored for one hour. Finally, for the DMR antagonist assay, cells underwent a 1-hour pretreatment with an antagonist before the addition of a specific agonist at the indicated concentration, and subsequent DMR signals were recorded over one hour.
(§2) The receptor selectivity was evaluated against a set of G protein-coupled receptors (GPCRs), including opioid receptor (Delta/Kappa/NOP), dopamine receptor (D1/D2), orphan receptor (GPR35), adrenergic receptor (α2A/β2), serotonin receptor (5HT2A), histamine receptor (H1) and cannabinoid receptor (CB1). Following a 1-hour pretreatment with DK, a 2-min baseline was established before introducing probes and monitoring DMR signals for another hour. The cells and probes were as follows: Delta, HEK293-Delta, SNC162; Kappa, HEK293-Kappa, ICI199441; NOP, HEK293-NOP, MCOPPB; D1, HEK293-D1, dopamine; D2, HEK293-D2, dopamine; GPR35, CHO-K1-hGPR35, zaprinast; 5HT2A, HEK293-5HT2A, 5-hydroxytryptamine; α2A, HEK293-α2A, L-Noradrenaline; β2, A431, isoprenaline; H1, A431, histamine; CB1, CHO-K1-CB1, CP 55940. The other detailed process was the same as above.

orphan receptor GPR35 = target: T2, orphan receptor GPR35 (Homo sapiens, UniProt Q9HC97); assay: DMR desensitization assay, CHO-K1-hGPR35, probe zaprinast; type: cell-based; details: 100 μM DK
T2 construct: expressed in transfected cells; host or cells: CHO-K1-hGPR35
T2 sequence (Q9HC97 whole entry): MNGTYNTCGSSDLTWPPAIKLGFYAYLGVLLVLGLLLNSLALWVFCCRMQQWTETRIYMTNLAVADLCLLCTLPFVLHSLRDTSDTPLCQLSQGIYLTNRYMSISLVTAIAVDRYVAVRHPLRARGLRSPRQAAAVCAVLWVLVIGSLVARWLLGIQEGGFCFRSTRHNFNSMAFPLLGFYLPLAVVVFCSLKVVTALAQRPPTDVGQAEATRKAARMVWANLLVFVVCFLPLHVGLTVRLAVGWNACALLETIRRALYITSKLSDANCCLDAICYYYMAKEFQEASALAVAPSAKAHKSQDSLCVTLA
Experimental: as §1
as §2, with “The other detailed process was the same as above.” left out

[1] = target: T3, serotonin receptor 5-HT2A (Homo sapiens, UniProt P28223); assay: DMR desensitization assay, HEK293-5HT2A, probe 5-hydroxytryptamine; type: cell-based; details: 100 μM DK
T3 construct: expressed in transfected cells; host or cells: HEK293-5HT2A
T3 sequence (P28223 whole entry): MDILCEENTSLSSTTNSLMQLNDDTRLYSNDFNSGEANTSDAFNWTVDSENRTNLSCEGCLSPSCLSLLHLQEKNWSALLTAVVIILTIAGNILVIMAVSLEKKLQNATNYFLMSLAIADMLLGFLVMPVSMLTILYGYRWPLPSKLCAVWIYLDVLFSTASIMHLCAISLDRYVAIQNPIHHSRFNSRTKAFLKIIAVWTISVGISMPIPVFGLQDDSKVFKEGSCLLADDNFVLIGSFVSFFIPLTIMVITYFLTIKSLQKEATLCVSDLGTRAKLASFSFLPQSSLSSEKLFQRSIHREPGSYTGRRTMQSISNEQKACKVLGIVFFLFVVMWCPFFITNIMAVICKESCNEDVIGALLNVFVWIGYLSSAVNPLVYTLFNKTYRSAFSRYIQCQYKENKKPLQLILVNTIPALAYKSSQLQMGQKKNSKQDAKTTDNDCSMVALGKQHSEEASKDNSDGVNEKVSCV
Experimental: as §1
as §2, with “The other detailed process was the same as above.” left out

adrenergic receptor α2A = target: T4, adrenergic receptor α2A (Homo sapiens, UniProt P08913); assay: DMR desensitization assay, HEK293-α2A, probe L-Noradrenaline; type: cell-based; details: 100 μM DK
T4 construct: expressed in transfected cells; host or cells: HEK293-α2A
T4 sequence (P08913 whole entry): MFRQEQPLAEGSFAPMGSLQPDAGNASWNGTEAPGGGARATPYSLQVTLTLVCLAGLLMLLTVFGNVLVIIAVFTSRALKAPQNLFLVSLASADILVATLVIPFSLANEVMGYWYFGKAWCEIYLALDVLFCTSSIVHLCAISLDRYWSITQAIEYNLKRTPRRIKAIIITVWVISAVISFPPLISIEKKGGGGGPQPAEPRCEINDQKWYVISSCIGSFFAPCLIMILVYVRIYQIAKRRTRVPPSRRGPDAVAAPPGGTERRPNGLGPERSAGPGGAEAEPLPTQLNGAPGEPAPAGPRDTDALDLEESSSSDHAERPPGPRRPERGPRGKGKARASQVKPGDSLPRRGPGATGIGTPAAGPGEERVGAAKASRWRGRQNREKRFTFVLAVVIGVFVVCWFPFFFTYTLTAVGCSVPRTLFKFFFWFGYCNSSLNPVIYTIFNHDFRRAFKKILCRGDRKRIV
Experimental: as §1
as §2, with “The other detailed process was the same as above.” left out

C57BL/6 male mice = assay: Rotarod test (motor coordination, sedation); type: in vivo; details: DK 20, 40 mg/kg i.p., one hour before testing
Experimental: Motor coordination were evaluated by the rotarod test, which was conducted as previously reported. Six-week-old C57BL/6 male mice were used in […] (n = 6). Mice underwent a three-day training period, twice daily (9:00 am and 3:00 pm), to make them stay balanced on the rotarod apparatus (Columbus), with a 3 cm diameter and rotating at a constant 11 rpm. Motor coordination was evaluated through mice's endurance on the rotating rod. Selection criteria included mice maintaining balance for 60–120 s. On the fourth day, mice were intraperitoneally injected (5 mL/kg) with a solvent mixture, morphine (5 mg/kg), or DK (20, 40 mg/kg) one hour before testing. Latency to fall (in seconds) was recorded after placing mice on the rotarod, with a 120-second cut-off time.

HUVEC cells = assay: Cytotoxicity assay (CCK-8), HUVEC; type: cell-based; details: 24 h
Experimental: HEK293T, CHO, and HUVEC cell lines were cultured overnight in 96-well plates before exposure to compounds for 24 h. Cell viability was evaluated using the Cell Counting Kit-8 (CCK-8, Beyotime Biotechnology, China), and absorbance at 450 nm was measured with a microplate reader. Cell survival rates were calculated relative to control conditions.

C57BL/6 mice = assay: Acute toxicity study; type: in vivo; details: 200 mg/kg daily for 14 days
Experimental: Sixteen C57BL/6 mice (25 ± 1 g, 8 males, 8 females) were used in acute toxicity studies. The mice were randomly divided into 2 groups (half male, half female each group) and treated with either solvent mixture (control) or 200 mg/kg DK (DK-treated) daily for 14 days. Throughout the study, the animals were monitored for motor activity, mortality, and body weight changes, which were recorded every other day.
At the end of the experiment (24 h after final DK administration), blood samples were collected via direct heart puncture, allowed to clot at room temperature, and centrifuged at 3000 rpm for 15 min. Serum was separated and stored at […] for biochemical analysis. Liver and renal injury markers, including aspartate transaminase (AST), alanine transaminase (ALT), UREA, CREA, albumin (ALB), urine acid (UA) and Glucose (Glu), were measured using an automatic biochemical analyzer (Chemray 240, 420 and 800, Rayto, China).
Following blood collection, the mice were sacrificed, and the heart, liver, spleen, lung and kidney were excised. These tissues were fixed in 4 % paraformaldehyde (PFA), dehydrated gradually using ethanol (50–100 %), and embedded in paraffin after clearing with xylene. Sections ([…] thick) were stained with hematoxylin and eosin (HE) for examination.

[2] = Pharmacokinetics, oral bioavailability; type: in vivo, SD male rats; details: rats, 20 mg/kg (method)
Experimental: Oral bioavailability evaluation was as follows. SD male rats (about 250 g) were used in bioavailability evaluation (n = 3). […] were given a single dose of DK (20 mg/kg, 5 mL/kg, […].) through intragastric administration or tail vein injection. Blood (300 μL) was collected at 0.083, 0.167, 0.25, 0.5, 1, 2, 4, 6, 8, and 10 h, into EDTA tubes. Plasma was obtained by mixing with acetonitrile and centrifugation (3000 r/min, 10 min).
Brain and plasma drug levels were measured by LC-30AD (Shimadzu Corporation Kyoto, Japan) and SCIEX QTRAP-6500 (AB Sciex, Foster City, CA, USA) and calculated by comparing with internal standard (koumine, 200 ng/mL). The used column was Waters ACQUITY UPLC BEH C18 (2.1*150 mm, 1.7 μm); the mobile phase was composed of (A) 0.1 % FA in water and (B) 0.1 % FA in ACN; the elution gradient was 20 % B (0–3 min), 20–40 % B (3–5 min), 40–95 % B (5–6 min); the flow rate was 0.3 mL/min; and detection was in the positive mode.

C=CC12CN(C)C3CC14c1ccccc1NC4C1CC2C3CO1 (stereo not shown) [DK]
DMR agonist response (Kappa opioid receptor; HEK293-Kappa cells): unable to trigger a concentration-dependent DMR response
probe-induced DMR response after DK pretreatment (Kappa opioid receptor; HEK293-Kappa, 25 nM ICI199441, pretreatment one hour): had little effect on the DMR response produced by the respective probes
antagonist effect at high concentration (decrease of probe DMR response) (Kappa opioid receptor; HEK293-Kappa, ICI199441, high-concentration of DK): very weak antagonist effects
reduction of probe DMR response (desensitization) (orphan receptor GPR35): almost unable to reduce the response
reduction of probe DMR response (desensitization) [1]: almost unable to reduce the response
reduction of probe DMR response (desensitization) (adrenergic receptor α2A): almost unable to reduce the response
sedative effect (locomotion, latency to fall) (C57BL/6 male mice): not a sedative at the tested doses
cytotoxicity (cell viability) (HUVEC cells): noncytotoxic
body weight gain (C57BL/6 mice): no significant differences between DK-treated and control groups
organ coefficients (heart, liver, spleen, lung, kidney) (C57BL/6 mice): comparable between the two groups
serum biochemical indicators and histological analysis of major organs (HE staining) (C57BL/6 mice): no significant structural or biochemical differences
visible abnormalities of major organs (C57BL/6 mice): No visible abnormalities were detected in the major organs
AUC ([2]; male, SD (Sprague-Dawley), rat, iv, plasma, i.v., read-out: (AUC)0-12 h, intravenous injection): 902 ng·h/mL
bioavailability ([2]; male, SD (Sprague-Dawley), rat, plasma, oral, i.g. vs i.v.): 42.6%
AUC ([2]; male, SD (Sprague-Dawley), rat, po, plasma, i.g., read-out: (AUC)0-12 h, intragastric administration): 384 ng·h/mL
time of highest plasma concentration ([2]; intragastric (i.g.) administration): 15 min
